Test results taken from US20100216722A1, “USE OF THE PEPTIDE PRO-GLY-THR-CYS-GLU-ILE-CYS-ALA-TYR-ALA-ALA-CYS-THR-GLY-CYS AS A THERAPEUTIC AGENT” (priority 2007, published 2010).
Positions of bridges follow the written chain, without caps; N, C: chain ends. Residues, ends and D or L forms follow the SMILES beside them.

Tests used:
HepG2-2.2.15 cells = test: Cytotoxicity in HepG2-2.2.15 cells (dye uptake cell viability); conditions: HepG2-2.2.15 cells; peptide 10 micrograms per ml; dye uptake assay
HIV-1IIIB = test: HIV-1 antiviral assay (CPE reduction, MTS) in CEM-SS cells; type: cell-based; conditions: peptide 10 micrograms per ml, 6 days post-infection
[1] = tested on: hepatitis B virus (HBV) ayw strain; test: HBV replication assay in HepG2-2.2.15 cells (TaqMan PCR of secreted HBV DNA); type: cell-based; conditions: peptide 10 micrograms per ml, six days, HBV DNA in supernatant
A549 cells [2] = test: Propidium iodide cell cycle assay; type: cell-based, human; conditions: peptide 10 micrograms per ml, 24 hours, Propidium iodide FACS
Procedure: Human A549 cells (carcinomic human alveolar basal epithelial cells) were utilized in the experiments employing the Propidium iodide cell cycle assay. The eukaryotic cell cycle is a series of events that take place in a cell leading to its replication. Propidium iodide is an intercalating agent and a fluorescent molecule that can be used to stain DNA. Cells were incubated for 24 hours with test peptide—10 micrograms per ml—or left untreated. […] The cells were pipetted into 2.5 ml absolute EtOH (final concentration approx. 70%) and incubated on ice for 15 min. Thereafter, cells were pelleted at 1500 rpm for 5 min and resuspended in Propidium iodide solution in PBS. After incubation for 40 min at 37° C., cells were analyzed in the FACS.

[3] = tested on: Human Peripheral Blood Mononuclear Cells (PBMC); test: T cell proliferation assay (PHA, 3H-thymidine); type: cell-based; conditions: peptide 10 micrograms per ml, 3H-thymidine incorporation
Procedure: (§1) Human Peripheral Blood Mononuclear Cells (PBMC) were obtained from normal human donors. The T cell proliferation was induced by stimulation of the cells with the T cell mitogen phytohemagglutinin (PHA), either in the absence (positive proliferation control), or in the presence of test peptide—10 micrograms per ml—to examine their effects on the T cell proliferating response. 10^5/well PBMC were plated in 96-well microtiter plates and assayed in duplicate with the peptide. Cell cultures were incubated at 37° C. for 3 days in a 5% CO2 incubator and were thereafter pulsed with 1 microCi/well ^3H-thymidine for additional 12 hours of culture. At the end of incubation time, the plates were harvested and the cells counted by liquid scintillation for the incorporation of ^3H-thymidine as a measure of T cell proliferation.

[4] = tested on: Human Peripheral Blood Mononuclear Cells (PBMC); test: B cell proliferation assay (SAC plus Interleukin-2, 3H-thymidine); type: cell-based; conditions: peptide 10 micrograms per ml, 3H-thymidine incorporation
Procedure: as §1, with “The B” for “The T”, “the B” for “the T”, “mitogen Staphylococcus aureus Cowans I (SAC) plus Interleukin-2,” for “mitogen phytohemagglutinin (PHA),”, “cell” for “cell proliferating”, “of B” for “of T”

RAW 264.7 cells = test: Phagocytosis assay (Fluorescein-labeled Escherichia coli, flow cytometry); type: cell-based, mouse; conditions: peptide 10 micrograms per ml, 30 min before Fluorescein-labeled E. coli
Procedure: Cells were incubated in 12×75 mm tubes at 37° C. with test peptide—10 micrograms per ml—for 30 min prior to adding Fluorescein-labeled Escherichia coli bacteria as the agent to be ingested. […] The samples were then analyzed by flow cytometry to determine the amount of phagocytosis as a function of brightness (the greater the phagocytic activity, the more fluorescence in the macrophage population). Data are reported as % positive and the mean fluorescence intensity (MFI) of positively stained cells.

A549 cells [5] = test: Apoptosis induction assay (Annexin-5); type: cell-based, human; conditions: apoptosis in A549 cells, peptide 10 micrograms per ml, 24 hours
Source text: Human A549 cells (carcinomic human alveolar basal epithelial cells) were utilized in the experiments employing the Annexin-5 apoptosis assay. Annexin-5 is a member of a highly conserved protein family that binds acidic phospholipids in a calcium-dependent manner. […] Phosphatidylserine is translocated from the inner side of the plasma membrane to the outer layer when cells undergo death by apoptosis or cell necrosis and serves as a signal by which cell destined for death are recognized by phagocytes. Test peptide—10 micrograms per ml—were exposed for 24 hours to the A549 cells before they were analyzed for signs of apoptosis.

A549 cells [6] = test: Apoptosis prevention assay (C2 ceramide, Annexin-5); type: cell-based, human; conditions: A549 cells pretreated 30 min with peptide 10 micrograms per ml, then C2 ceramide
Source text: Human A549 cells (carcinomic human alveolar basal epithelial cells) were utilized in the experiments employing the Annexin-5 apoptosis assay. Annexin-5 is a member of a highly conserved protein family that binds acidic phospholipids in a calcium-dependent manner. […] Phosphatidylserine is translocated from the inner side of the plasma membrane to the outer layer when cells undergo death by apoptosis or cell necrosis and serves as a signal by which cell destined for death are recognized by phagocytes. A549 cells were pretreated for 30 min with test peptide—10 micrograms per ml—followed by the exposure to C2 ceramide. Ceramide mediates cell apoptosis through the activation of the mitogen activating protein kinase (MAPK) and the stress activated kinase (JNK/SAPK). C2 ceramide is a synthetic, membrane soluble analog of ceramide.

[7] = tested on: spleen cells of Ovalbumin-immunized Balb/c mice; test: Th1/Th2 cytokine profiling assay (Ovalbumin-restimulated spleen cells, CBA kit); type: cell-based, mouse; conditions: peptide 10 micrograms per ml; Ovalbumin restimulation; 72 hours
Procedure: The Balb/c mice (originated in 1923, it is a popular strain and is used in many different research disciplines. […] On day 50, spleens of the mice were harvested (3 weeks after last boost with Ovalbumin). Cells were cultured (2×10^5/well in triplicate) and incubated with culture medium or test peptide—10 micrograms per ml—for 30 min. Thereafter, additional Ovalbumin was added to the cells at 10 micrograms/ml for in vitro restimulation of the cells. 72 hours later, cell supernatants were harvested and assayed using the Becton Dickinson Mouse Th1/Th2 Cytokine CBA Kit. This kit can be used to measure Interleukin-2 (IL-2), Interleukin-4 (IL-4), Interleukin-5 (IL-5), Interferon-γ (IFN-γ), and Tumor Necrosis Factor-α (TNF-α) protein levels in a single sample. The kit performance has been optimized for analysis of physiologically relevant concentrations (pg/ml levels) of specific cytokine proteins in tissue culture supernatants and serum samples.

[8] = tested on: macrophages differentiated from human PBMC; test: TNF alpha production assay (LPS-stimulated macrophages, ELISA); type: cell-based; conditions: peptide 10 micrograms per ml, 30 min before lipopolysaccharide 200 ng/ml, overnight
Procedure: Human Peripheral Blood Mononuclear Cells (PBMC) were obtained from normal human donors. The macrophages were prepared by adherence of PBMC to the plastic wells of the plates. After 8 days in culture in the presence of recombinant human macrophage-colony stimulating factor at 2 ng/ml, differentiated macrophages were preincubated with test peptide—10 micrograms per ml—for 30 min, followed by in-well stimulation by the addition of lipopolysaccharide at a final concentration of 200 ng/ml. Not stimulated macrophages served as negative background control. After overnight incubation, supernatants from the control and LPS-stimulated cultures were harvested and assayed for TNF alpha production employing a TNF alpha specific ELISA.

[9] = tested on: Primary Human endothelial cells (HUVEC); test: Endothelial cell migration assay; type: cell-based; conditions: peptide 10 micrograms per ml, 22 hours
Procedure: Endothelial cell migration is a prerequisite for the process of neo-vascularization or angiogenesis which is crucial for on-site recruitment of blood vessel formation. […] Thereafter, designated concentration of test peptide—10 micrograms per ml—was added in duplicate wells. The endothelia were allowed to migrate for 22 hours at 37° C., then, migrated cells were fixed and stained with Hoechst 33342 dye. Images of 3 fields per insert were taken and the number of migrated cells per field were quantified using the ImageProPlus software. Data were analyzed for the average number of the migrated cells and standard deviation of six data points for each treatment condition. Active test peptide against HUVEC migration was determined based on 50% inhibition of migrated cells as compared with the control. Statistic p values were computed using the Student's t-test.

HUVEC = test: Endothelial tube formation assay; type: cell-based, human; conditions: peptide 10 micrograms per ml, 20 hours
Procedure: The endothelial tube formation assay is based on the ability of endothelial cells to form three-dimensional capillary-like tubular structures when cultured on a gel of basement membrane extract. The endothelial tube formation assay represents a powerful model for studying inhibition and induction of angiogenesis. Pre-labeled HUVEC with Calcein AM were seeded in a 96-well culture plate coated with extracellular metrix (Chemicon international Cat. ECM625) and treated with test peptide—10 micrograms per ml—in full growth medium. Positive control wes vehicle only. The endothelial cells were allowed to form tubes foe 20 hours and were then examined under an inverted fluorescent microscope. Duplicate wells for each treatment were photographed and quantitatively analyzed for an average tubule length using image analysis software ImageProPlus. Raw data were expressed as average tubule lengths in pixels±standard deviation. Statistic p values were computed using the Student's t-test.

in vitro [10] = conditions: human, CEM-SS cells
in vitro [11] = conditions: human, MRC-5 cells (embryonal lung fibroblasts)
Procedure: (§2) For cytotxicity testing, MRC-5 cells were seeded at 2,500 cells/well in 96 well plates using growth medium. […] The following day, peptide was added and tested in duplicates. After a 6 days incubation period, cell viability was measured using CellTiter 96 Solution (Promega). Plates were incubated for additional 4 hours at 37° C. Adhesive plate sealers were used in place of lids, the sealed plates were inverted several times to mix the soluble formazan product and the plate was read spectrophotometrically at 490/560 nm with a Molecular Devices Vmax plate reader.

HCMV strain AD169 = test: HCMV plaque reduction assay in MRC-5 cells; conditions: HCMV AD169 in MRC-5 cells; peptide 10 micrograms per ml; 7-10 days
[12] = Cytotoxicity in HepG2-2.2.15 cells (dye uptake cell viability); conditions: human
MRC-5 cells = conditions: human, 6 days
Procedure: as §2

## Nc1ccn([C@@H]2CS[C@H](CO)O2)c(=O)n1 [3TC, Lamivudine, reference compound]
HepG2-2.2.15 cells
  % Cell viability: 95.8%

## Cc1cn([C@H]2C[C@H](N=[N+]=[N-])[C@@H](CO)O2)c(=O)[nH]c1=O [AZT, zidovudine]
HIV-1IIIB
  % CPE reduction in HIV-1 infected CEM-SS cells: 99%

## CC[C@H](C)[C@@H]1NC(=O)[C@H](CCC(=O)O)NC(=O)[C@@H](NC(=O)[C@@H](NC(=O)CNC(=O)[C@@H]2CCCN2)[C@@H](C)O)CSSC[C@@H]2NC(=O)[C@H](C)NC(=O)[C@H](C)NC(=O)[C@H](Cc3ccc(O)cc3)NC(=O)[C@H](C)NC(=O)[C@H](CSSC[C@@H](C(=O)O)NC(=O)CNC(=O)[C@H]([C@@H](C)O)NC2=O)NC1=O [Guanylin, Pro-Gly-Thr-Cys-Glu-Ile-Cys-Ala-Tyr-Ala-Ala-Cys-Thr-Gly-Cys-OH] (H-PGTCEICAYAACTGC-OH; disulfide 4-12, 7-15 (inferred); N-terminus assumed)
HIV-1IIIB
  % CPE reduction in HIV-1 infected CEM-SS cells: 13.2%
[1]
  % inhibition of HBV replication in HEP G2 cells: 21.7%
A549 cells [2]
  Cell cycle analysis G0/G1: 58.7
  Cell cycle analysis G2/M: 9.8
  Cell cycle analysis S: 31.5
[3]
  % of PHA induced control: 93.7%
[4]
  % of SAC/IL2 induced control: 97.0%
RAW 264.7 cells
  % of control phagocytosis: 105.9%
A549 cells [5]
  % of induction: 1.5%
A549 cells [6]
  % prevention of ceramide induced apoptosis: 0.0%
[7]
  IFNγ spleen cells; TH1 response (% of control): 62.0 % of control
  IL-2 spleen cells (% of control): 135.5 % of control
  IL-4 spleen cells; TH2 response (% of control): 143.8 % of control
  IL-5 spleen cells; TH2 response (% of control): 82.6 % of control
  TNF-a spleen cells; TH1 response (% of control): 108.5 % of control
[8]
  % of LPS induction: 96.6%
[9]
  % inhibition of migration: 24.0%
HUVEC
  % inhibition of tube formation: 10.0%
In vitro [10]
  viability at 10 micrograms per ml: 100%
In vitro [11]
  viability at 144 h: 100%
HCMV strain AD169
  % plaque reduction: 0.0%
[12]
  viability at 144 h, 10 micrograms per ml: 91.2%

## Nc1nc(O)c2ncn(COC(CO)CO)c2n1 [Ganciclovir, reference compound]
MRC-5 cells
  % Cell viability: 100%
HCMV strain AD169
  % plaque reduction: 100%

## CC(C)(C)NC(=O)[C@@H]1CN(Cc2cccnc2)CCN1C[C@@H](O)C[C@@H](Cc1ccccc1)C(=O)N[C@H]1c2ccccc2C[C@H]1O [Indinavir, indinavir]
HIV-1IIIB
  % CPE reduction in HIV-1 infected CEM-SS cells: 100%
